Patent publication US20140343049A1, “DIHYDROFURAN DERIVATIVES AS INSECTICIDAL COMPOUNDS” (SYNGENTA PARTICIPATIONS AG, priority 2011, published 2014)

How the values were obtained:
Assay type in all cases: in vivo
[1] = test system: Tetranychus urticae (two-spotted spider mite); test: Tetranychus urticae bean leaf disc spray test; conditions: foliar, 192 h, bean leaf discs sprayed at 200 ppm, mixed ages, egg, larval and adult mortality 8 days later
Procedure, shortened: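 Leaf discs of bean on agar were sprayed at 200 ppm, dried, then infested with mixed-age mites. Egg, larval and adult mortality were scored 8 days later.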

[2] = test system: Diabrotica balteata (corn root worm); test: Diabrotica balteata L2 larvae test on artificial diet; conditions: 120 h, 200 ppm (concentration in well 18 ppm), 5 days, larval mortality and growth regulation
Procedure, shortened: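 Artificial diet treated with test solution at 200 ppm or 12.5 ppm application rate (in-well concentration stated as 18 ppm), dried, then infested with 6-10 L2 larvae per well. Larval mortality and growth regulation scored after 5 days.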

[3] = test system: Myzus persicae (green peach aphid); test: Myzus persicae (sachet) mixed population test; conditions: 120 h, sucrose solution, application rate 12.5 ppm, mortality 5 days after infestation
Source text: Test compounds were applied by pipette into 24 well plates and mixed with Sucrose solution. The plates were closed with a stretched Parafilm. A plastic stencil with 24 holes is placed onto the plate and infested pea seedlings were placed directly on the Parafilm. The infested plate is closed with a gel blotting paper and another plastic stencil and then turned upside down. 5 days after infestation the samples were checked on mortality. Application rate: 12.5 ppm.

[4] = test system: Thrips tabaci (onion thrips); test: Thrips tabaci sunflower leaf disc spray test; conditions: foliar, 168 h, sunflower leaf discs sprayed at 200 ppm, mixed ages, mortality after 7 days
Experimental: Sunflower leaf discs were placed on agar in a 24-well microtiter plate and sprayed with test solutions at an application rate of 200 ppm. […] After drying, the leaf discs were infested with a thrip population of mixed ages. After an incubation period of 7 days, samples were checked for mortality.

[5] = test system: Plutella xylostella (diamond back moth); test: Plutella xylostella L2 larvae test on artificial diet; conditions: 144 h, 200 ppm (concentration in well 18 ppm), 6 days, larval mortality and growth regulation
Experimental: 24-well microtiter plate (MTP) with artificial diet was treated with test solutions at an application rate of 200 ppm (concentration in well 18 ppm) by pipetting. After drying, the MTPs were infested with L2 larvae (7-12 per well). After an incubation period of 6 days, samples were checked for larval mortality and growth regulation.

[6] = test system: Heliothis virescens (tobacco budworm); test: Heliothis virescens egg test on artificial diet; conditions: 96 h, 200 ppm (concentration in well 18 ppm), eggs 0-24 h old, 4 days, egg mortality, larval mortality, growth regulation
Experimental: Eggs (0-24 h old) were placed in 24-well microtiter plate on artificial diet and treated with test solutions at an application rate of 200 ppm (concentration in well 18 ppm) by pipetting. After an incubation period of 4 days, samples were checked for egg mortality, larval mortality, and growth regulation.

[7] = test system: Spodoptera littoralis (Egyptian cotton leafworm); test: Spodoptera littoralis cotton leaf disc spray test; conditions: foliar, 72 h, cotton leaf discs sprayed at 200 ppm, 5 L1 larvae, mortality, feeding behavior, growth regulation 3 days after treatment
Source text: Cotton leaf discs were placed on agar in a 24-well microtiter plate and sprayed with test solutions at an application rate of 200 ppm. After drying, the leaf discs were infested with 5 L1 larvae. The samples were checked for mortality, feeding behavior, and growth regulation 3 days after treatment (DAT).

[8] = test system: Spodoptera littoralis (Egyptian cotton leaf worm); test: Spodoptera littoralis (systemic) test, compound in agar taken up by salad roots; conditions: 120 h, application rate 12.5 ppm, checked 5 days after infestation for mortality, repellent effect, feeding behavior, growth regulation
Source text: (§1) Test compounds were applied by pipette into 24 well plates and mixed with agar. Salad seeds were placed on the agar and the multi well plate is closed by another plate which contains also agar. After 7 days the roots have absorbed the compound and the salad has grown into the lid plate. The salad leafs were now cut off into the lid plate. Spodoptera eggs were pipette through a plastic stencil on a humid gel blotting paper and the plate closed with it. The samples are checked for mortality, repellent effect, feeding behavior, and growth regulation 5 days after infestation. Application rate: 12.5 ppm
as §1, with “infestation.” for “infestation. Application rate: 12.5 ppm”

Cc1cc(C2=CC(c3cc(Cl)cc(Cl)c3)(C(F)(F)F)OC2)ccc1C(=O)NCC(=O)NCC(F)(F)F (stereo not shown) [Compound A1, 4-[5-(3,5-Dichloro-phenyl)-5-trifluoromethyl-2,5-dihydro-furan-3-yl]-2-methyl-N-[(2,2,2-trifluoro-ethylcarbamoyl)-methyl]-benzamide]
≥ 80%: pest or weed control at 200 ppm [1] | pest or weed control at 200 ppm [2] | pest or weed control at 12.5 ppm [3] | pest or weed control at 200 ppm [4] | pest or weed control at 200 ppm [5] | pest or weed control at 200 ppm [6] | pest or weed control at 200 ppm [7] | pest or weed control at 12.5 ppm [8]

Cc1cc(C2=CC(c3cc(Cl)cc(Cl)c3)(C(F)(F)F)OC2)ccc1C(=O)NC1CS(=O)(=O)C1 (stereo not shown) [Compound A15]
≥ 80%: pest or weed control at 200 ppm [1] | pest or weed control at 200 ppm [2] | pest or weed control at 12.5 ppm [3] | pest or weed control at 200 ppm [4] | pest or weed control at 200 ppm [5] | pest or weed control at 200 ppm [6] | pest or weed control at 200 ppm [7] | pest or weed control at 12.5 ppm [8]

CCN1OC[C@H](NC(=O)c2ccc(C3=CC(c4cc(Cl)cc(Cl)c4)(C(F)(F)F)OC3)cc2C)C1=O (stereo partly drawn) [Compound A16, 4-[5-(3,5-Dichloro-phenyl)-5-trifluoromethyl-2,5-dihydro-furan-3-yl]-N—((S)-2-ethyl-3-oxo-isoxazolidin-4-yl)-2-methyl-benzamide]
≥ 80%: pest or weed control at 200 ppm [1] | pest or weed control at 200 ppm [2] | pest or weed control at 12.5 ppm [3] | pest or weed control at 200 ppm [4] | pest or weed control at 200 ppm [5] | pest or weed control at 200 ppm [6] | pest or weed control at 200 ppm [7] | pest or weed control at 12.5 ppm [8]

Cc1nc(C2=CC(c3cc(Cl)cc(Cl)c3)(C(F)(F)F)OC2)ccc1C(=O)NCC(=O)NCC(F)(F)F (stereo not shown) [Compound C5]
≥ 80%: pest or weed control at 200 ppm [1] | pest or weed control at 200 ppm [2] | pest or weed control at 12.5 ppm [3] | pest or weed control at 200 ppm [4] | pest or weed control at 200 ppm [5] | pest or weed control at 200 ppm [6] | pest or weed control at 200 ppm [7] | pest or weed control at 12.5 ppm [8]

Cc1nc(C2=CC(c3cc(Cl)cc(Cl)c3)(C(F)(F)F)OC2)ccc1C(=O)NC1CS(=O)(=O)C1 (stereo not shown) [Compound C13]
≥ 80%: pest or weed control at 200 ppm [1] | pest or weed control at 200 ppm [2] | pest or weed control at 12.5 ppm [3] | pest or weed control at 200 ppm [4] | pest or weed control at 200 ppm [5] | pest or weed control at 200 ppm [6] | pest or weed control at 200 ppm [7] | pest or weed control at 12.5 ppm [8]

Cc1cc(C2=CC(c3cc(Cl)cc(Cl)c3)(C(F)(F)F)OC2)ccc1C(=O)NCC(F)(F)F (stereo not shown) [Compound D1]
≥ 80%: pest or weed control at 200 ppm [4] | pest or weed control at 12.5 ppm [8]

Cc1cc(C2=CO[C@@](c3cc(Cl)cc(Cl)c3)(C(F)(F)F)C2)ccc1C(=O)NCC(=O)NCC(F)(F)F [Compound D5, 4-[(2S)-2-(3,5-dichlorophenyl)-2-(trifluoromethyl)-3H-furan-4-yl]-2-methyl-N-[2-oxo-2-(2,2,2-trifluoroethylamino)ethyl]benzamide]
≥ 80%: pest or weed control at 200 ppm [1] | pest or weed control at 200 ppm [2] | pest or weed control at 12.5 ppm [3] | pest or weed control at 200 ppm [4] | pest or weed control at 200 ppm [5] | pest or weed control at 200 ppm [6] | pest or weed control at 200 ppm [7] | pest or weed control at 12.5 ppm [8]

Cc1cc(C2=CC(c3cc(Cl)cc(Cl)c3)(C(F)(F)F)OC2)ccc1C(=O)NCC1CCCO1 (stereo not shown) [Compound D8]
≥ 80%: pest or weed control at 200 ppm [1] | pest or weed control at 12.5 ppm [3] | pest or weed control at 200 ppm [4] | pest or weed control at 12.5 ppm [8]

Cc1cc(C2=CC(c3cc(Cl)cc(Cl)c3)(C(F)(F)F)OC2)ccc1C(=O)NCc1ccccn1 (stereo not shown) [Compound D15]
≥ 80%: pest or weed control at 200 ppm [1] | pest or weed control at 200 ppm [2] | pest or weed control at 12.5 ppm [3] | pest or weed control at 200 ppm [4] | pest or weed control at 200 ppm [5] | pest or weed control at 200 ppm [6] | pest or weed control at 200 ppm [7] | pest or weed control at 12.5 ppm [8]

Cc1cc(C2=CC(c3cc(Cl)cc(Cl)c3)(C(F)(F)F)OC2)ccc1C(=O)NC1C[S+]([O-])C1 (stereo not shown) [Compound D20]
≥ 80%: pest or weed control at 200 ppm [2] | pest or weed control at 200 ppm [5] | pest or weed control at 12.5 ppm [8]

Cc1cc(C2=CC(c3cc(Cl)cc(Cl)c3)(C(F)(F)F)OC2)ccc1C(=O)NC1CSC1 (stereo not shown) [Compound D21]
≥ 80%: pest or weed control at 200 ppm [2] | pest or weed control at 200 ppm [5] | pest or weed control at 12.5 ppm [8]

O=C(CNC(=O)c1ccc(C2=CC(c3cc(Cl)cc(Cl)c3)(C(F)(F)F)OC2)nc1Cl)NCC(F)(F)F (stereo not shown) [Compound F1, 2-Chloro-6-[5-(3,5-dichloro-phenyl)-5-trifluoromethyl-2,5-dihydro-furan-3-yl]-N-[(2,2,2-trifluoro-ethylcarbamoyl)-methyl]-nicotinamide]
≥ 80%: pest or weed control at 200 ppm [1] | pest or weed control at 200 ppm [2] | pest or weed control at 12.5 ppm [3] | pest or weed control at 200 ppm [4] | pest or weed control at 200 ppm [5] | pest or weed control at 200 ppm [6] | pest or weed control at 200 ppm [7] | pest or weed control at 12.5 ppm [8]
